According to PubChem BioAssay (NCI):
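Five compound concentrations were applied to cells in 96-well plates for 48 hours; endpoints were derived by simple linear interpolation of the resulting dose-response curve. At the GI50, growth is halved. TGI is the concentration that stops growth completely.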

Key:
Experiment in all cases: DTP human tumour cell line panel, 48 h
MDA-MB-435 = tested on: MDA-MB-435
IGROV1 ovarian = tested on: IGROV1 ovarian
A498 renal = tested on: A498 renal
786-0 renal = tested on: 786-0 renal
SW-620 colon = tested on: SW-620 colon
DU-145 prostate = tested on: DU-145 prostate
SN12C renal = tested on: SN12C renal
MDA-MB-231 breast = tested on: MDA-MB-231 breast
OVCAR-8 ovarian = tested on: OVCAR-8 ovarian

Row | SMILES | TGI (MDA-MB-435) [µM] | TGI (IGROV1 ovarian) [µM] | TGI (A498 renal) [µM] | TGI (786-0 renal) [µM] | TGI (SW-620 colon) [µM] | TGI (DU-145 prostate) [µM] | TGI (SN12C renal) [µM] | TGI (MDA-MB-231 breast) [µM] | TGI (OVCAR-8 ovarian) [µM] | GI50 (IGROV1 ovarian) [µM] | GI50 (A498 renal) [µM] | GI50 (SW-620 colon) [µM] | GI50 (DU-145 prostate) [µM] | GI50 (SN12C renal) [µM] | GI50 (MDA-MB-231 breast) [µM] | GI50 (OVCAR-8 ovarian) [µM]
1 | CCOC(=O)C1=C(C)C2C=C(c3cccs3)CC(c3ccc(Cl)cc3)=C2OC1=O (centres undefined) | > 100 | > 100 | > 100 | 67.1 | > 100 | > 100 | > 100 | > 100 | > 100 |  |  |  |  |  |  | 
2 | COc1cccc(CCCNC(=O)Cc2cc(OC)c(OC)cc2CO)c1 | > 100 | > 100 | > 100 | > 100 | > 100 | > 100 | > 100 | > 100 | > 100 |  |  |  |  |  |  | 
3 | COc1ccc2c(c1)OCC1Cc3ccccc3OC21 (centres undefined) | > 100 | > 100 | > 10 | > 100 | > 100 | > 100 | > 100 | > 100 | > 100 |  |  |  |  |  |  | 
4 | Cc1cc(N(CCOS(C)(=O)=O)CCOS(C)(=O)=O)ccc1C=O | 28.8 | 39.2 | 7.29 |  | > 100 |  | 11.6 | 94.6 | > 100 |  |  |  |  |  |  | 
5 | O=c1[nH]c(=O)n(C2OC(CO)C(O)C2O)c2nc(-c3ccc(-c4ccccc4)cc3)cnc12 (centres undefined) | > 100 | > 100 | > 100 | > 100 | > 100 | > 100 | > 100 | > 100 | > 100 |  |  |  |  |  |  | 
6 | NS(=O)(=O)c1cc2c(cc1Cl)NC(CCC(=O)O)=NS2(=O)=O | > 100 | > 100 | > 100 | > 100 | > 100 | > 100 | > 100 | > 100 | > 100 |  |  |  |  |  |  | 
7 | COc1cc(C2c3cc4c(cc3OC(NN)C2C)OCO4)cc(OC)c1OC (centres undefined) |  | > 100 | 0.709 | > 100 | > 100 | > 100 | > 100 | > 91.1 | > 100 |  |  |  |  |  |  | 
8 | CC1=C[C@@H]2Cc3nc4cc(Cl)ccc4c(N)c3[C@H](C1)C2 | 25.8 | 8.14 | 23.4 | 19 | 25.3 | 27.3 | 29.6 | 28.7 | 38.9 |  |  |  |  |  |  | 
9 | CCCC(=O)OC1CC(n2cc(F)c(=O)[nH]c2=O)OC1COP(=O)(OCC(Cl)(Cl)Cl)OCC(Cl)(Cl)Cl (centres undefined) | > 100 | > 31.6 |  | > 100 | > 100 | > 67.6 | > 100 | > 100 | > 100 |  |  |  |  |  |  | 
10 | O=[N+]([O-])C(/C=C(\Cl)n1nnc2ccccc21)=C(/Cl)n1nnc2ccccc21 | > 100 | > 100 | > 100 | > 100 |  | > 100 | > 100 | > 100 |  |  |  |  |  |  |  | 
11 | Oc1ccc([I+]c2ccccc2)cc1O | 66.2 | > 100 | > 100 | > 100 | 37.1 | > 100 | > 100 | > 100 | > 100 |  |  |  |  |  |  | 
12 | CCC1(CC)C(=O)NN(C(=O)c2ccccc2)C1=O | > 100 | > 100 |  | > 100 | > 100 | > 100 | > 100 | > 100 | > 100 |  |  |  |  |  |  | 
13 | O=C1c2ccccc2-c2c1c(-c1ccc(F)cc1)nc1ccc3ccccc3c21 | > 100 |  | > 100 | > 100 | > 100 | > 100 | > 100 | > 100 | > 100 |  |  |  |  |  |  | 
14 | COC(=O)C1CCC(=O)N1C(c1ccc(OC)cc1)c1ccc2c(c1)OCO2 (centres undefined) | 28.7 | > 100 | > 100 | > 100 | > 100 | > 100 | > 100 | > 100 | > 100 |  |  |  |  |  |  | 
15 | CCN(CC)CCn1c(=O)c2cccnc2n2c3c(=O)n(C)c(=O)n(C)c3nc12 | > 100 | > 100 |  | > 100 | > 100 | > 100 | > 100 | > 100 | > 100 |  |  |  |  |  |  | 
16 | CCOC(=O)c1c(C)nc2c3ccccc3c(C#N)c(C)n12 | > 100 | > 100 | > 100 |  | > 100 | > 100 | > 100 | 46.5 | > 100 |  |  |  |  |  |  | 
17 | CC1=NN(c2cccc(Cl)c2)C2(SCC(=O)N2c2nc3ccccc3s2)/C1=C\c1ccccc1O (centres undefined) | 60.2 | 80.9 | 38.4 | 32.3 | 35.8 | 42.2 |  | 67.9 | 42 |  |  |  |  |  |  | 
18 | COc1cc(/C=C/C(=O)CC(=O)/C=C/c2ccc(OC(=O)CCCCC3CCSS3)c(OC)c2)ccc1OC(=O)CCCCC1CCSS1 (centres undefined) | > 100 | > 100 |  | > 100 | > 100 | > 100 | > 100 | > 100 | > 100 |  |  |  |  |  |  | 
19 | Cc1nc(N)c(N2CCN([N+](=O)[O-])CC2)c(=O)[nH]1 | > 100 |  | > 100 | > 100 | > 100 | > 100 | > 100 | > 100 | > 100 |  |  |  |  |  |  | 
20 | CO[C@H]1/C=C(/C)CCC[C@H](C)[C@H](O)[C@@H](C)C(=O)C(C)(C)[C@@H](O)CC(=O)O[C@@H]1/C(C)=C/c1csc(C)n1 |  | > 100 | > 100 |  | > 100 | 0.0817 | > 100 | > 100 | > 100 | 0.0241 | 0.0234 | < 0.0148 | 0.0259 | 0.0488 | 0.0428 | 0.0277
21 | N#Cc1c(-c2ccccc2)/c(=C\Nc2ccc(F)cc2)c(=O)n2c1nc1ccccc12 | > 100 | 87.3 | > 100 | 68.3 | > 100 |  | 82.9 | > 100 | > 100 |  |  |  |  |  |  | 
22 | CCOC(=O)c1ccc(NCC#CCN2CCOCC2)cc1 | > 100 | > 100 | > 100 | > 100 | > 100 | > 100 | > 100 | > 100 |  |  |  |  |  |  |  | 
23 | CCOP(=O)(OCC)C(c1ccc(F)cc1)N(C(=O)NC(F)(F)F)c1ccc(OC)cc1 (centres undefined) | > 100 | > 100 |  | > 100 | > 100 | > 100 | > 100 | > 100 | > 100 |  |  |  |  |  |  | 
24 | COc1ccc(NC(=O)CC(=O)N2N=C(N3c4ccccc4Sc4ccccc43)CC2c2ccccc2)cc1 (centres undefined) | > 100 | > 100 |  | > 100 | > 100 | > 100 | > 100 | > 100 | > 100 |  |  |  |  |  |  | 
